# Measurements reported in patent US20040072992A1, “Novel peptide capable of specifically acting on biological membrane” (priority 2002, published 2004).
# “And” between values parts separate entries of the source, which are not always exact repeats. Equal values may be shown once. Read-outs that look alike come from different tables or passages of the source. Where no end group is shown, it is not given here.
# What was measured:
# [1] = Anti-cancer activity, HCT-15; assay type: cell-based, human; settings: HCT-15, large intestine cancer
# Experimental: (§1) Anti-cancer activity was evaluated using a method complying with an anti-cancer agent screening method (1990) using a human cancer cell panel which has been carried out by U.S. National Cancer Institute (NCI). Cells employed in experiments were from the following three cell lines: HL60 cell (cell line derived from human leukemia); HeLa cell (cell line derived from human uterine cancer); and HCT116 cell (cell line derived from human large intestine cancer). Media suitable for use of these cells are RPMI-1640 medium containing 10% FCS; a MEM medium containing 10% CS; and McCoy5A medium containing 10% FCS, respectively.
# (§2) Cells suspended in themedium wereplated into 96-well plates at a concentration of 1×10^5 cells/cm^2, followed by incubation overnight. Peptide solutions containing various concentrations of the peptide of the present invention were added to the plates, followed by incubation at 37° C. for 2 days in a CO2 incubator. During culturing, the growth of the cells was measured by colorimetry using sulforhodamine B and the peptide concentration was categorized into any of GI50 which is the concentration at which the growth is inhibited by 50% as compared to the control; TGI which is the concentration at which the number of cells is seemingly not increased or decreased from the time of addition of the peptide of the present invention, i.e., the growth is suppressed to the same number of cells as when the peptide was added: and LC50 which is the concentration at which the number of cells is decreased to 50% of that at the time of addition of the peptide.
# (§3) Thereafter, various cancer cells were employed to confirm the anti-cancer activity of mast21R. Each cancer cell was cultured in RPMI-1640 medium containing 10% FCS.
# [2] = Anti-cancer activity, EBC-1; assay type: cell-based, human; settings: EBC-1, lung cancer
# Experimental: as §1, §2, §3
# [3] = Anti-cancer activity, 5637 cell; assay type: cell-based, human; settings: bladder cancer
# Experimental: as §1, §2, §3
# [4] = Anti-cancer activity, SH-10-TC; assay type: cell-based, human
# Experimental: as §1, §2, §3
# [5] = Anti-cancer activity, colo205; assay type: cell-based, human; settings: colo205, large intestine cancer
# Experimental: as §1, §2, §3
# [6] = Anti-cancer activity, SR-BR-3; assay type: cell-based, human; settings: SR-BR-3, breast cancer
# Experimental: as §1, §2, §3
# [7] = Anti-cancer activity, A549; assay type: cell-based, human; settings: A549, lung cancer
# Experimental: as §1, §2, §3
# [8] = Anti-cancer activity, DU-145; assay type: cell-based, human; settings: DU-145, prostate cancer
# Experimental: as §1, §2, §3
# [9] = Anti-cancer activity, LK-2; assay type: cell-based, human; settings: LK-2, lung cancer
# Experimental: as §1, §2, §3
# [10] = Anti-cancer activity, NIH OVCAR-3; assay type: cell-based, human; settings: NIH OVCAR-3, ovarian cancer
# Experimental: as §1, §2, §3
# [11] = Anti-cancer activity, A172; assay type: cell-based, human; settings: A172, glioblastoma
# Experimental: as §1, §2, §3
# [12] = Anti-cancer activity, EJ-1 cell; assay type: cell-based, human
# Experimental: as §1, §2, §3
# [13] = Anti-cancer activity, D98-AH2; assay type: cell-based, human
# Experimental: as §1, §2, §3
# [14] = Anti-cancer activity, PC-3; assay type: cell-based, human; settings: PC-3, prostate cancer
# Experimental: as §1, §2, §3
# [15] = test system: Erwinia carotovora (NBRC3380); assay: Antibacterial activity against plant pathogenic bacteria; assay type: cell-based; settings: 30° C., 16 to 24 h
# Experimental: Mast21, mast21R, ALR6, and KVL6 were evaluated with respect to antibacterial activity against Erwinia carotovora (NBRC3380) which is a plant pathogenic bacterium causing soft rot. Specifically, a minimum concentration of a peptide capable of inhibiting the growth of bacteria was determined using microtiter plates. Bacteria were cultured for 16 h in culture medium (Difco Nutrient Broth 8 g, NaCl 5 g/L, pH 7.0), followed by measurement of absorbance at A600. Each bacterial strain was diluted into a final concentration of 1×10^6 CFU/ml. For each peptide, 5 mM aqueous solution was prepared, and thereafter, was subjected to serial dilution. The peptide serial dilutions (50 μl for each) were added to respective wells of the microplate to which 50 μl of the bacterial solution had been added (final cell concentration: 5×10^5 CFU/ml, final peptide concentration: 0 to 50 μM). […] The unit of concentration described in Table 9 is μM.
# [16] = Anti-cancer activity, MCF7; assay type: cell-based, human
# Experimental: as §1, §2, §3
# [17] = Anti-cancer activity, KATO III cell; assay type: cell-based, human
# Experimental: as §1, §2, §3
# [18] = Anti-cancer activity, ACHN; assay type: cell-based, human
# Experimental: as §1, §2, §3
# S. aureus JCM2413 = settings: JCM2413, 18 h
# B. subtilis IFO13722 = settings: IFO13722, 18 h
# E. coli JCM1649 = settings: JCM1649, 18 h
# E. coli CE-273 = settings: CE-273, 18 h
# S. enteritidis ATC14028 = settings: ATC14028, 18 h
# E. coli CR-3 = settings: CR-3, 18 h
# B. sereus IFO3457 = settings: 18 h
# S. enteritidis ATCC1891 = settings: ATCC1891, 18 h
# S. aureus IFO13276 = settings: IFO13276, 18 h
# erythrocytes = settings: for Hemolytic property (relative value): red cells of human
# [19] = read-out: LC50 (the source's name)
substance,measurement,setting,value
"ALRALRALRALRALRALR [ALR6, ALRALRALRALRALRALR]",CC50 at 2 days,"[1]; human, HCT-15 cells (large intestine cancer cells), read-out: LC50",> 100 µM
same,CC50 at 2 days,"[2]; human, EBC-1 cells (lung cancer cells), read-out: LC50",> 100 µM
same,CC50 at 2 days,"[3]; human, read-out: LC50",> 100 µM
same,LC50 at 2 days,"[4]; human, SH-10-TC cells (stomach cancer cells)",> 100 µM
same,CC50 at 2 days,"[5]; human, read-out: LC50",> 100 µM
same,CC50 at 2 days,"[6]; human, SR-BR-3 cells (breast cancer cells), read-out: LC50",100 µM
same,CC50 at 2 days,"[7]; human, read-out: LC50",> 100 µM
same,CC50 at 2 days,"[8]; human, read-out: LC50",> 100 µM
same,CC50 at 2 days,"[9]; human, LK-2 cells (lung cancer cells), read-out: LC50",> 100 µM
same,CC50 at 2 days,"[10]; human, NIH OVCAR-3 cells (ovarian cancer cells), read-out: LC50",> 100 µM
same,CC50 at 2 days,"[11]; human, read-out: LC50",> 100 µM
same,CC50 at 2 days,"[12]; human, EJ-1 cells (bladder cancer cells), read-out: LC50",> 100 µM
same,CC50 at 2 days,"[13]; human, D98-AH2 cells (uterine cancer cells), read-out: LC50",> 100 µM
same,CC50 at 2 days,"[14]; human, PC-3 cells (prostate cancer cells), read-out: LC50",> 100 µM
same,MIC,[15],3.1 μM and 3.2 μg/ml
same,LC50 at 2 days,"[16]; human, MCF7 cells (breast cancer cells)",80 µM
same,CC50 at 2 days,"[17]; human, KATO III cells (stomach cancer cells), read-out: LC50",> 100 µM
same,CC50 at 2 days,"[18]; human, ACHN cells (kidney cancer cells), read-out: LC50",> 100 µM
"INWKGIAAMAKKLL [mastoparanX, INWKGIAAMAKKLL, reference compound]",MIC,S. aureus JCM2413,12.5 µM
same,MIC,B. subtilis IFO13722,3.1 µM
same,MIC,E. coli JCM1649,3.1 µM
same,MIC,E. coli CE-273,3.1 µM
same,MIC,S. enteritidis ATC14028,6.3 µM
same,MIC,E. coli CR-3,3.1 µM
same,MIC,B. sereus IFO3457,3.1 µM
same,MIC,S. enteritidis ATCC1891,3.1 µM
same,MIC,S. aureus IFO13276,1.56 µM
same,"Hemolytic property, in words",erythrocytes,high level of hemolytic property
same,Hemolytic property (relative value),erythrocytes; 1 μM,5.4%
same,Hemolytic property (relative value),erythrocytes; 5 μM,18.8%
same,Hemolytic property (relative value),erythrocytes; 10 μM,86%
same,Hemolytic property (relative value),erythrocytes; 100 μM,93%
"KNWKGIAGMAKKLLGKNWKLM [mast21, reference compound]",CC50,[1]; [19],80 µM
same,CC50,[2]; [19],100 µM
same,MIC,S. aureus JCM2413,12.5 µM
same,MIC,B. subtilis IFO13722,6.3 µM
same,MIC,E. coli JCM1649,6.3 µM
same,MIC,E. coli CE-273,3.1 µM
same,CC50,[3]; [19],> 100 µM
same,LC50,[4]; stomach cancer,90 µM
same,CC50,[5]; [19],> 100 µM
same,MIC,S. enteritidis ATC14028,6.3 µM
same,CC50,[6]; [19],90 µM
same,CC50,[7]; [19],70 µM
same,CC50,[8]; [19],> 100 µM
same,CC50,[9]; [19],> 100 µM
same,CC50,[10]; [19],100 µM
same,CC50,[11]; [19],> 100 µM
same,CC50,"[12]; bladder cancer, read-out: LC50 (the source's name)",70 µM
same,CC50,"[13]; D98-AH2, uterine cancer, read-out: LC50 (the source's name)",> 100 µM
same,CC50,[14]; [19],100 µM
same,MIC,E. coli CR-3,6.3 µM
same,MIC,B. sereus IFO3457,3.1 µM
same,MIC,[15],3.1 μM and 3.7 μg/ml
same,LC50,"[16]; MCF7, breast cancer",100 µM
same,MIC,S. enteritidis ATCC1891,6.3 µM
same,CC50,"[17]; stomach cancer, read-out: LC50 (the source's name)",> 100 µM
same,MIC,S. aureus IFO13276,25 µM
same,Hemolytic property (relative value),erythrocytes; 100 μM,5.4%
same,CC50,"[18]; kidney cancer, read-out: LC50 (the source's name)",80 µM
KNWKGIAGMAKKLLGKNWKLM-NH2 [mast21N],MIC,S. aureus JCM2413,12.5 µM
same,MIC,B. subtilis IFO13722,3.1 µM
same,MIC,E. coli JCM1649,3.1 µM
same,MIC,E. coli CE-273,3.1 µM
same,MIC,S. enteritidis ATC14028,6.3 µM
same,MIC,E. coli CR-3,3.1 µM
same,MIC,B. sereus IFO3457,3.1 µM
same,MIC,S. enteritidis ATCC1891,6.3 µM
same,MIC,S. aureus IFO13276,12.5 µM
same,Hemolytic property (relative value),erythrocytes; 100 μM,13%
